For 26 compounds, pest or weed control results are on record in patent US20200288710A1, “SUBSTITUTED SULPHONAMIDES FOR CONTROLLING ANIMAL PESTS” (BAYER CROPSCIENCE AKTIENGESELLSCHAFT, priority 2016, published 2020).

Common to all, as to format: in vivo
One assay deals with Meloidogyne incognita. The assay can be described thus: Meloidogyne incognita test. Particulars: 336 h, lettuce, after 14 days, read-out: nematicidal efficacy (formation of galls). As to the method: Meloidogyne incognita Test Solvent: 125.0 parts by weight of acetone To produce a suitable active compound preparation, 1 part by weight of active compound is mixed with the stated amount of solvent and the concentrate is diluted with water to the desired concentration. Vessels are filled with sand, active compound solution, an egg/larvae suspension of the southern rootknot nematode (Meloidogyne incognita) and lettuce seeds. The lettuce seeds germinate and the plants develop. The galls develop on the roots. After 14 days, the nematicidal efficacy in % is determined by the formation of galls. 100% means that no galls were found; 0% means that the number of galls on the treated plants corresponds to the untreated control.

Assay [1] deals with Myzus persicae. As to the kind of experiment: Myzus persicae spray test (Chinese cabbage leaf discs). As to conditions: foliar, 120 h, 500 g/ha, after 5-6 days, read-out: efficacy. Put shortly:
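Formulated compound in acetone/dimethylformamide, diluted in water with 1000 ppm emulsifier, was sprayed onto Brassica pekinensis leaf discs carrying mixed-stage Myzus persicae. Percent mortality was read 5-6 days later (0% = no aphids killed, 100% = all killed).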

In assay [2] the test system is Myzus persicae. As to the kind of experiment: Myzus persicae oral test. Particulars: 120 h, 20 ppm, oral uptake, after 5 days, read-out: efficacy. Put shortly: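 Aphids of mixed ages imbibe, through parafilm, compound solution (acetone stock, water-diluted) combined with sugar-supplemented IPL41 medium to 200 μl. Efficacy read at day 5 as percent killed, 0% meaning no deaths.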

SMILES strings stand for the structures.

With `Cc1cccc(C)c1S(=O)(=O)NC(=O)c1cc(-c2ncccc2Cl)n(-c2ccccc2Cl)n1` [Example 267], the pest or weed control at 20 ppm in the assay on Meloidogyne incognita is 100%.

For the compound `Cc1ccccc1S(=O)(=O)NC(=O)c1cn(C)c(-c2ccccc2Oc2ccccc2)n1` [Example 485], the pest or weed control at 20 ppm in the assay on Meloidogyne incognita is 90%. In the case of `COc1ccc(Cl)c(S(=O)(=O)NC(=O)c2nc(-c3c(F)cccc3Cl)[nH]c2C)c1` [Example 624], the pest or weed control at 20 ppm with Meloidogyne incognita was 90%. Same read-out and setting: in the case of `COc1cccc(S(C)(=O)=O)c1S(=O)(=O)NC(=O)c1cn(C)c(-c2c(F)cccc2F)n1` [Example 382] it was 90%; in that of `CCc1[nH]c(-c2cc(Cl)cc(Cl)c2)nc1C(=O)NS(=O)(=O)c1ccccc1Cl` [Example 254], 90%; in that of `Cc1ccccc1S(=O)(=O)NC(=O)c1cn(C)c(-c2csc3ccccc23)n1` [Example 530], 90%. Same read-out and setting: in the case of `Cc1cccc(C2CCCC2)c1S(=O)(=O)NC(=O)c1cn(C)c(-c2c(F)cccc2F)n1` [Example 362] it was 100%; in that of `Cn1cc(C(=O)NS(=O)(=O)N2CCOCC2)nc1-c1c(F)cccc1F` [Example 505], 90%.

In the case of `Cn1cc(C(=O)NS(=O)(=O)Nc2ccccc2)nc1-c1c(F)cccc1F` [Example 507], in the assay with Meloidogyne incognita, the pest or weed control at 20 ppm worked out at 90%.

`Cc1ccccc1-c1nc(C(=O)NS(=O)(=O)c2ccccc2)cn1C` [Example 50]: the pest or weed control at 20 ppm with Meloidogyne incognita was found to be 90%. Same read-out and setting: in the case of `CCc1[nH]c(-c2cccc(Cl)c2)nc1C(=O)NS(=O)(=O)c1ccccc1C` [Example 129] it was 90%; in that of `Cn1cc(C(=O)NS(=O)(=O)c2ccccc2Cl)nc1-c1cccc2c1OC(F)(F)O2` [Example 541], 100%; in that of `Cn1cc(C(=O)NS(=O)(=O)c2ccccc2Cl)nc1-c1cccs1` [Example 516], 90%. On the same count and under the same terms, in the case of `COc1ccccc1NS(=O)(=O)NC(=O)c1cn(C)c(-c2c(F)cccc2F)n1` [Example 508] it was 90%; in that of `CC(C)Cc1ccc(S(=O)(=O)NC(=O)c2cn(C)c(-c3c(F)cccc3F)n2)cc1` [Example 287], 90%; in that of `CCn1c(C(=O)NS(=O)(=O)c2ccccc2C)nc(-c2c(F)cccc2F)c1C` [Example 417], 100%. Still for that read-out and setting: in the case of `Cn1cc(C(=O)NS(=O)(=O)Nc2ccc(Cl)cc2)nc1-c1c(F)cccc1F` [Example 506] it was 90%. Consider `COc1ccccc1S(=O)(=O)NC(=O)c1cn(C)c(-c2cccc3ccccc23)n1` [Example 480], for which, in the assay with Meloidogyne incognita, the pest or weed control at 20 ppm was 90%. Still for that read-out and setting: in the case of `Cn1cc(C(=O)NS(=O)(=O)c2c(Cl)cccc2Cl)nc1-c1c(F)cc(F)cc1F` [Example 4] it was 90%. Regarding `Cn1cc(C(=O)NS(=O)(=O)c2ccccc2Cl)nc1-c1ccccc1C#N` [Example 481], the pest or weed control at 20 ppm in the assay with Meloidogyne incognita is 90%. Same read-out and setting: in the case of `COc1ccccc1S(=O)(=O)NC(=O)c1cn(C)c(-c2ccc(F)c(F)c2)n1` [Example 546] it was 100%.

Consider `Cn1cc(C(=O)NS(=O)(=O)c2ccccc2Cl)nc1-c1c(F)cccc1C#N` [Example 501], for which the pest or weed control at 500 g/ha with Myzus persicae [1] was found to be 100%. Further, the pest or weed control at 20 ppm with Myzus persicae [2] stood at 100%. Consider `Cn1cc(C(=O)NS(=O)(=O)c2c(F)cccc2F)nc1-c1ccccc1Cl` [Example 53], for which the pest or weed control at 500 g/ha with Myzus persicae [1] came to 100%. Moreover, the pest or weed control at 20 ppm with Myzus persicae [2] was found to be 100%. For `COc1ccc(F)c(S(=O)(=O)NC(=O)c2cn(C)c(-c3c(F)cccc3F)n2)c1` [Example 170], the pest or weed control at 500 g/ha in the assay with Myzus persicae [1] was 90%. Also, the pest or weed control at 20 ppm with Myzus persicae [2] was found to be 100%. `Cn1cc(C(=O)NS(=O)(=O)c2ccccc2Cl)nc1-c1ccccc1OC(F)(F)F` [Example 459]: in the assay on Myzus persicae [1], the pest or weed control at 500 g/ha came out at 90%. Moreover, the pest or weed control at 20 ppm in the assay on Myzus persicae [2] came out at 100%. With `CCn1cc(C(=O)NS(=O)(=O)c2ccccc2C)nc1-c1c(F)cccc1F` [Example 570], the pest or weed control at 500 g/ha in the assay on Myzus persicae [1] was determined as 100%. Besides, the pest or weed control at 20 ppm in the assay on Myzus persicae [2] stood at 100%.
